Measurements taken from US20170165231A1, “TREATING EWING'S SARCOMA AND EWS-FLI1 RELATED DISORDERS” (STAR BIOTECHNOLOGY, LLC, priority 2012, published 2017).
Where two headings read alike, the source gives them in different places.

Assays:
[1] = unformulated compound, background statement; cited from earlier work
[2] = design: species or system CF1 mice; conditions: in vivo; for HL_Lambda_z: CF1, mouse
Excerpt: FIGS. 1A and 1B depict data of pharmacokinetic studies in CF1 mice with respect to administration of the API in the formulation shown in the Figures and via the route of administration shown in the Figures. […] In FIG. 1A group/dose=Group IV_IV_40; Rsq=0.9297; Rsq_adjusted=0.9062; HL_Lambda_z=4.7397 (hr); (5 points used in calculation); Uniform Weighting. […] In FIG. 1B group/dose=Group V_PO_40; Rsq=0.693; Rsq_adjusted=0.6163; HL_Lambda_z=2.0556 (hr); (6 points used in calculation); Uniform Weighting.
FIGS. 2A and 2B depict data of pharmacokinetic studies in CF1 mice with respect to administration of the API in the formulation shown in the Figures and via the route of administration shown in the Figures. […] In FIG. 2A dose/route=Group III_PO_150; Rsq=0.9685; Rsq_adjusted=0.9528; HL_Lambda_z=4.2505 (hr); (4 points used in calculation); Uniform Weighting. […] In FIG. 2B dose/route=Group VI_PO_400; Rsq=0.9971; Rsq_adjusted=0.9957; HL_Lambda_z=1.9461 (hr); (4 points used in calculation); Uniform Weighting.
Pharmacokinetics and bioavailability data was obtained from animal studies for a 50% PEG 400 plus 10% EtOH plus PBS formulation (Groups 1, 2 & 3) and a 40% PEG 400 plus 5% EtOH plus 18% TPGS plus PBS formulation (Groups 4, 5 & 6) and are shown below in Table 2.
The API was administered to CF1 mice. Blood was drawn from the mice at predetermined time intervals. Plasma was isolated from the blood and analyzed using LCMS to determine amounts of API (ng/mL). The data shown in FIG. 1A was obtained for IV administration of 40 mg/kg of API in a formulation containing 40% PEG400, 5% EtOH and 18% TPGS (d-alpha tocopheryl PEG1000 succinate). The data shown in FIG. 1B was obtained for PO administration of 40 mg/kg of API in a formulation containing 40% PEG400, 5% EtOH and 18% TPGS (d-alpha tocopheryl PEG1000 succinate). The data shown in FIG. 2A was obtained for PO administration of 150 mg/kg of API in a formulation containing 50% PEG400 and 10% EtOH. The data shown in FIG. 2B was obtained for PO administration of 400 mg/kg of API in a formulation containing 40% PEG400, 5% EtOH and 18% TPGS (d-alpha tocopheryl PEG1000 succinate). Time 0 in FIGS. 1A, 1B, 2A and 2B represent the time of administration of the API.

[3] = tested on: TC71 Luc cells; experiment: TC71Luc Ewing's sarcoma xenograft murine model; assay type: in vivo, mice; conditions: continuous and prolonged API administration
Excerpt: FIG. 3 (Smooth of Grouped-TC71 Luc Xenograft Animal Model) depicts data obtained from a TC71 Luc Ewing's sarcoma xenograft murine model for mice treated with the API in an EtOH (5%), PEG400 (40%), PBS formulation. The x-axis is time post-administration of the API in days with 0 being the first day of administration of API. The y-axis is tumor volume in mm^3.
Using a TC71Luc Ewing's sarcoma xenograft murine model, mice were subcutaneously injected with 1 million TC71 Luc cells. At a predetermined tumor volume (time=0), mice were given the first administration of API in an EtOH (5%), PEG400 (40%), PBS formulation. FIG. 3 depicts data obtained from control and for administration once per week (1×), three times per week (3×) and five times per week (5×) in each case at a dosage of 1.2 mg per mouse.

HL_Lambda_z ([2]; iv, 40 mg/kg): 4.7397 h
HL_Lambda_z ([2]; po, 40 mg/kg): 2.0556 h
HL_Lambda_z ([2]; po, 150 mg/kg): 4.2505 h
HL_Lambda_z ([2]; po, 400 mg/kg): 1.9461 h
clearance rate from plasma ([2]; mouse): rapid
SMILES: COc1ccc(C(=O)CC2(O)C(=O)Nc3c(Cl)ccc(Cl)c32)cc1 (stereo not shown) [compound of Formula I, 4,7-Dichloro-1,3-dihydro-3-hydroxy-3[2-(4-methoxyphenyl)-2-oxoethyl]-2H-indol-2-one]
solubility in water [1]: highly insoluble
tumor abatement [3]: increased tumor abatement
